According to US11713338B2, “Cyclic peptides multimers targeting α-4-β-7 integrin” (priority 2016, dated 2023):

Tests used:
[1] = target: T1, recombinant integrin α4β1 (Homo sapiens, UniProt P05556+P13612); assay: Integrin α4β1—VCAM-1 competition ELISA; assay type: binding; details: read-out: ELISA a4b1 Assay IC50
T1 construct: purchased R&D Systems 5397-A3-050
Procedure: Integrin α4β1—VCAM-1 Competition ELISA
The plate was incubated at 4° C. overnight. […] The plate was then incubated for 1 hour at room temperature. The plate was washed three times with wash buffer (50 mM Tris, 100 mM NaCl, 1 mM MnCl2, 0.05% Tween). To each well, 50 μl of compound diluted in assay buffer was added by transfer from a compound serial dilution plate. […] The plate was incubated at room temperature with shaking (300 rpm) for 2 hours to reach binding equilibrium. Then the plate was washed three times in wash buffer and 100 μl anti-human IgG Fc specific-HRP (Abcam, Ab97225) diluted at 1:2000 in assay buffer was added to each well. The plate was incubated at room temperature for 1 hour under agitation.

[2] = target: T2, recombinant integrin α4β7 (Homo sapiens, UniProt P13612+P26010, DEL724-798); assay: Integrin α4β7—MAdCAM-1 ELISA competition assay; assay type: binding; details: for ELISA Assay Ratio b1/b7: ratio of a4b1 to a4b7 ELISA IC50; for IC50: read-out: ELISA a4b7 Assay IC50
T2 construct: purchased R&D Systems 5397-A3-050
T2 sequence (P13612 34-970 limits assumed): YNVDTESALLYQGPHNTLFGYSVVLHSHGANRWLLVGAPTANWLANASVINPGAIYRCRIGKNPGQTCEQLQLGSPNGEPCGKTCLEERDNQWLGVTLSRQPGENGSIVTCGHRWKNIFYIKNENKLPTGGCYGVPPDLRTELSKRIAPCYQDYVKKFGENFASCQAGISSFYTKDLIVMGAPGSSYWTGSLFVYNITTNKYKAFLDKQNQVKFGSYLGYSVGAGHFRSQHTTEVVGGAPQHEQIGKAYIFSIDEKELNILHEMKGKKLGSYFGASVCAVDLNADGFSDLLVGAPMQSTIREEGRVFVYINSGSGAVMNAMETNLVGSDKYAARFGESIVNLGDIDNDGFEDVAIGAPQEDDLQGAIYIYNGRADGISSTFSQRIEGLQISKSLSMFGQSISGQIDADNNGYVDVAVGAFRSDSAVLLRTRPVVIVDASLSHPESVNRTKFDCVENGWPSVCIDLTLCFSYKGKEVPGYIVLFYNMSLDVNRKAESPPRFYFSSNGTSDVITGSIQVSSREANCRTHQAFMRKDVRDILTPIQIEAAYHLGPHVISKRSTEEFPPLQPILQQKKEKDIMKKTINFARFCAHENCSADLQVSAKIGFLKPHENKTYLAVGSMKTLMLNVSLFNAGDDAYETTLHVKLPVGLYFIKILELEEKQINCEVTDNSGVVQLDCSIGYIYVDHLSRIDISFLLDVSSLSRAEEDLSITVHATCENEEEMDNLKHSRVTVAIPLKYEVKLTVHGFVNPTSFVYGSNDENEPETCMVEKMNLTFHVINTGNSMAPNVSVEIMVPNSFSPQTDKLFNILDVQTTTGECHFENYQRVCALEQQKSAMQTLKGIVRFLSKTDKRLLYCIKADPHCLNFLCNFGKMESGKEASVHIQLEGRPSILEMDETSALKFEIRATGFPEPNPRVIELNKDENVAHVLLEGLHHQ
T2 sequence (P26010 20-723 limits assumed): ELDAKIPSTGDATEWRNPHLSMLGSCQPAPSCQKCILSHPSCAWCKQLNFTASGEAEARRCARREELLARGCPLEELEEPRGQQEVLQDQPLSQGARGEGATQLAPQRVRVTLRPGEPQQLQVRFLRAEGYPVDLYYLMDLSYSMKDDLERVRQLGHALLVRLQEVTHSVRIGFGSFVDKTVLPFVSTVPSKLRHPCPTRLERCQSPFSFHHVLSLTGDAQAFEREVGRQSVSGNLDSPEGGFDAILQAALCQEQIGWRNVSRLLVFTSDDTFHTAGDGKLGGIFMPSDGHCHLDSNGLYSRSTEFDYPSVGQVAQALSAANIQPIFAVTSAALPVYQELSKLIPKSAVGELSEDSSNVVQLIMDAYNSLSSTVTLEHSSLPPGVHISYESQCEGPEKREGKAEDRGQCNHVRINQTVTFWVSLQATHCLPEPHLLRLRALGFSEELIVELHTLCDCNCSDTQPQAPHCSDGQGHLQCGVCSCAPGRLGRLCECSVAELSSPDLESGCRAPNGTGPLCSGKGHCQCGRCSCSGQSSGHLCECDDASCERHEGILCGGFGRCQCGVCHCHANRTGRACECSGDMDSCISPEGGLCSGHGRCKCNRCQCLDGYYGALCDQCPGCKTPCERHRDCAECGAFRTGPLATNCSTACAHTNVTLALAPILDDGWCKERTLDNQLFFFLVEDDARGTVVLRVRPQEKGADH

T1 sequence (P05556 21-728 limits assumed, one chain of several): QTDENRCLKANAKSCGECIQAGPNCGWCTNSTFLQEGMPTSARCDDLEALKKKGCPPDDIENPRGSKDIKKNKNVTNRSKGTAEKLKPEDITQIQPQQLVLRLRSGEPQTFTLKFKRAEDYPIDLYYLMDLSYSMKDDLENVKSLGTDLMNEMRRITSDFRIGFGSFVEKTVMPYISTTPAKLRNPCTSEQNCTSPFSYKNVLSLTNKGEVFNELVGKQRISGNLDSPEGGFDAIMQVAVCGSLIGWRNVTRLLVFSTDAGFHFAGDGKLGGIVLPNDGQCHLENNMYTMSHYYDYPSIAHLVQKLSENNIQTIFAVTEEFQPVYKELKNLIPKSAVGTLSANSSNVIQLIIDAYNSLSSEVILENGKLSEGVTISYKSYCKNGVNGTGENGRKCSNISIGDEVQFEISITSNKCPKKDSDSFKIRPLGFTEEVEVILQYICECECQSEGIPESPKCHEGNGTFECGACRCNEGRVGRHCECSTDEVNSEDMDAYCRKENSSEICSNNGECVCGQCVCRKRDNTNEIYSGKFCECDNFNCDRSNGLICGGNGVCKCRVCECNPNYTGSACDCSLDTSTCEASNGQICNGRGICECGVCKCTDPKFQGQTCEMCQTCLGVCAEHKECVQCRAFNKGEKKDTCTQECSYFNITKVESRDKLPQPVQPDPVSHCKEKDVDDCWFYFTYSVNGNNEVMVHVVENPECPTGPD

SMILES | IC50 [1] | ELISA Assay Ratio b1/b7 [2] | IC50 [2]
CC(C)C[C@@H]1NC(=O)C2(CCCC2)NC(=O)[C@@H]2CCCN2[C@H](C(=O)NC(C)(C)C)[C@H](C)NC(=O)[C@H]([C@@H](C)O)NC(=O)[C@H](CC(=O)O)NC1=O [Compound 88] | 0.166 µM | 14.9 | 0.011 µM
CC(C)C[C@@H]1NC(=O)C[C@H](CCCCN)NC(=O)C2(CCNCC2)NC(=O)[C@@H]2CCCN2[C@H](C(=O)NC(C)(C)C)[C@H](C)NC(=O)[C@H]([C@@H](C)O)NC(=O)[C@H](CC(=O)O)NC1=O [Compound 275] | 0.779 µM | 7.7 | 0.101 µM
Cc1cccc(C)c1-c1ccc(C[C@@H]2NC(=O)[C@@H]3CCCN3[C@H](C(=O)NC(C)(C)C)[C@H](C)NC(=O)[C@H]([C@@H](C)O)NC(=O)[C@H](CC(=O)O)NC(=O)[C@H](CC(C)C)NC(=O)C[C@H](CCCCN)NC2=O)cc1 [Compound 268] | 1.87 µM | 24.6 | 0.076 µM
Cc1cccc(C)c1-c1cccc(C[C@@H]2NC(=O)[C@@H]3CCCN3[C@H](C(=O)NC(C)(C)C)[C@H](C)NC(=O)[C@H]([C@@H](C)O)NC(=O)[C@H](CC(=O)O)NC(=O)[C@H](CC(C)C)NC(=O)C[C@H](CCCCN)NC2=O)c1 [Compound 265] | 1.82 µM | 46.2 | 0.039 µM
CC(C)C[C@@H]1NC(=O)C[C@H](CCCCN)NC(=O)[C@H](Cc2ccc(I)cc2)NC(=O)[C@@H]2CCCN2[C@H](C(=O)NC(C)(C)C)[C@H](C)NC(=O)[C@H]([C@@H](C)O)NC(=O)[C@H](CC(=O)O)NC1=O [Compound 260] | 9.56 µM | 58.1 | 0.165 µM
CC(C)C[C@@H]1NC(=O)[C@H](CC2CCCCC2)NC(=O)[C@@H]2CCCN2[C@H](C(=O)NC(C)(C)C)[C@H](C)NC(=O)[C@H]([C@@H](C)O)NC(=O)[C@H](CC(=O)O)NC1=O [Compound 7] | 0.19 µM | 1.6 | 0.117 µM
CC(C)C[C@@H]1NC(=O)[C@H](Cc2csc(-c3ccncc3)n2)NC(=O)[C@@H]2CCCN2[C@H](C(=O)NC(C)(C)C)[C@H](C)NC(=O)[C@H]([C@@H](C)O)NC(=O)[C@H](CC(=O)O)NC1=O [Compound 97] | 0.311 µM | 2.5 | 0.124 µM
CC(C)C[C@@H]1NC(=O)[C@H]2CCCCN2C(=O)[C@@H]2CCCN2[C@H](C(=O)NC(C)(C)C)[C@H](C)NC(=O)[C@H]([C@@H](C)O)NC(=O)[C@H](CC(=O)O)NC1=O [Compound 51] | 0.102 µM | 3.3 | 0.031 µM
CC(C)C[C@@H]1NC(=O)[C@H]2C[C@H](O)CN2C(=O)[C@H](Cc2cscn2)NC(=O)[C@@H]2CCCN2[C@H](C(=O)NC(C)(C)C)[C@H](C)NC(=O)[C@H]([C@@H](C)O)NC(=O)[C@H](CC(=O)O)NC1=O [Compound 151] | 0.218 µM | 4.1 | 0.053 µM
CC(C)C[C@@H]1NC(=O)[C@H](Cc2ccc(O)cc2)NC(=O)[C@@H]2CCCN2[C@H](C(=O)NC(C)(C)C)[C@H](C)NC(=O)[C@H](C(C)(C)S)NC(=O)[C@H](CC(=O)O)NC1=O [Compound 55] | 0.119 µM | 1.1 | 0.113 µM
CC(C)C[C@@H]1NC(=O)CN(C)C(=O)[C@H](Cc2ccc(-c3ccccc3)cc2)NC(=O)[C@@H]2CCCN2[C@H](C(=O)NC(C)(C)C)[C@H](C)NC(=O)[C@H]([C@@H](C)O)NC(=O)[C@H](CC(=O)O)NC1=O [Compound 116] | 1.39 µM | 8.4 | 0.166 µM
CC(C)C[C@@H]1NC(=O)[C@H](Cc2ccc(-c3ccccc3)cc2)NC(=O)[C@@H]2C[C@@H](F)CN2[C@H](C(=O)NC(C)(C)C)[C@H](C)NC(=O)[C@H]([C@@H](C)O)NC(=O)[C@H](CC(=O)O)NC1=O [Compound 46] | 0.258 µM | 2.4 | 0.106 µM
CC(C)C[C@@H]1NC(=O)CN(C)C(=O)[C@H](Cc2cccc(I)c2)NC(=O)[C@@H]2CCCN2[C@H](C(=O)NC(C)(C)C)[C@H](C)NC(=O)[C@H]([C@@H](C)O)NC(=O)[C@H](CC(=O)O)NC1=O [Compound 106] | 1.11 µM | 18.7 | 0.059 µM
CC(C)C[C@@H]1NC(=O)C[C@H](CCCCN)NC(=O)[C@](C)(Cc2ccccc2)NC(=O)[C@@H]2CCCN2[C@H](C(=O)NC(C)(C)C)[C@H](C)NC(=O)[C@H]([C@@H](C)O)NC(=O)[C@H](CC(=O)O)NC1=O [Compound 263] | 2.35 µM | 23.1 | 0.102 µM
CC(C)C[C@@H]1NC(=O)[C@H](Cc2cccc3ccccc23)NC(=O)[C@@H]2CCCN2[C@H](C(=O)NC(C)(C)C)[C@H](C)NC(=O)[C@H]([C@@H](C)O)NC(=O)[C@H](CC(=O)O)NC1=O [Compound 9] | 0.106 µM | 1.7 | 0.061 µM
COc1cccc(-c2ccccc2C[C@@H]2NC(=O)[C@@H]3CCCN3[C@H](C(=O)NC(C)(C)C)[C@H](C)NC(=O)[C@H]([C@@H](C)O)NC(=O)[C@H](CC(=O)O)NC(=O)[C@H](CC(C)C)NC(=O)[C@H]3CCCCN3C2=O)c1 [Compound 136] | 0.209 µM | 6.6 | 0.032 µM
CC(C)C[C@@H]1NC(=O)[C@H](Cc2ccc3ccccc3c2)NC(=O)[C@@H]2CCCN2[C@H](C(=O)NC(C)(C)C)[C@H](C)NC(=O)[C@H]([C@@H](C)O)NC(=O)[C@H](CC(=O)O)NC1=O [Compound 10] | 0.07 µM | 1.3 | 0.052 µM
CC(C)C[C@@H]1NC(=O)[C@H]2CCCCN2C(=O)[C@H](Cc2ccccc2I)NC(=O)[C@@H]2CCCN2[C@H](C(=O)NC(C)(C)C)[C@H](C)NC(=O)[C@H]([C@@H](C)O)NC(=O)[C@H](CC(=O)O)NC1=O [Compound 133] | 0.08 µM | 5.3 | 0.015 µM
CC(C)C[C@@H]1NC(=O)[C@@H](CCCN(C)C)NC(=O)[C@@H]2CCCN2[C@H](C(=O)NC(C)(C)C)[C@H](C)NC(=O)[C@H]([C@@H](C)O)NC(=O)[C@H](CC(=O)O)NC1=O [Compound 83] | 1.23 µM | 6.9 | 0.179 µM
CC(C)C[C@@H]1NC(=O)C[C@H](CCCCN)NC(=O)C2(Cc3ccccc3C2)NC(=O)[C@@H]2CCCN2[C@H](C(=O)NC(C)(C)C)[C@H](C)NC(=O)[C@H]([C@@H](C)O)NC(=O)[C@H](CC(=O)O)NC1=O [Compound 288] | 1.66 µM | 12.2 | 0.136 µM
CC(C)C[C@@H]1NC(=O)[C@@H](CCCCN)NC(=O)[C@H](Cc2ccc(-c3ccccc3)cc2)NC(=O)[C@@H]2CCCN2[C@H](C(=O)NC(C)(C)C)[C@H](C)NC(=O)[C@H]([C@@H](C)O)NC(=O)[C@H](CC(=O)O)NC1=O [Compound 110] | 3.92 µM | 21.3 | 0.185 µM
